Experimental data reported in publication PMC10906223 (JCI Insight, 2024).
Where “and” joins values, the source holds several entries; their conditions need not be identical. Equal values may be shown once.

Assays:
[1] = system: human dispersed islet cells; assay: Immunofluorescence: F-actin intensity in glucagon+ human dispersed islet cells; format: cell-based;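 on F-actin intensity: ImageJ intensity within ROI drawn around each glucagon+ cell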
Procedure: (§1) Coverslips were treated with WCDD301, preclustered Ephrin-A5 Fc, or preclustered Fc in the following sequential order: KRBH (11 mM glucose, 30 minutes), KRBH (1 mM glucose, 60 minutes), KRBH (1 mM glucose, 30 minutes), and KRBH (11 mM glucose, 60 minutes). After treatment, coverslips were washed once in PBS, fixed in 2% paraformaldehyde in PBS (30 minutes), and again washed in PBS. […] Following wash in PBS, coverslips were incubated in a mixture of Alexa Fluor 555 Phalloidin (Cell Signaling Technology, catalog 8953) and secondary antibodies (goat anti-rabbit Alexa Fluor 488, catalog A-21094, 1:1,000, Molecular Probes; and goat anti-mouse Alexa Fluor 633, catalog A21052, 1:1,000, Life Technologies) for 1 hour at RT. Both primary and secondary antibodies were diluted in blocking buffer containing 0.05% Tween 20. Coverslips were washed using PBS and counterstained by using DAPI (1:1,000) for 10 minutes. Following 2 washes in PBS, coverslips were mounted on glass slides using ProLong Glass Antifade Mountant (Invitrogen, catalog P36980). Images were captured using the Zeiss LSM880 microscope with a Plan-Apochromat 63× 1.4 NA objective lens by setting dual-band dichroic/filter for 405, 488, 561, and 633 nm laser excitation. For each slide, 25–30 fields of view were scanned, and in each field of view, 3–5 cells were imaged. […] Values of intensity were compared among groups using 1-way ANOVA, α = 0.05.

[2] = system: mouse dispersed islet cells; assay: Immunofluorescence: F-actin intensity in glucagon+ mouse dispersed islet cells; format: cell-based;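 on F-actin intensity: ImageJ intensity within ROI drawn around each glucagon+ cell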
Procedure: as §1

[3] = system: human dispersed islet cells; assay: Immunofluorescence: EphA4 intensity in glucagon+ human dispersed islet cells; format: cell-based;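 on EphA4 intensity: ImageJ intensity within ROI drawn around each glucagon+ cell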
Procedure: as §1

[4] = Plasma stability assay, CD-1 mouse plasma; format: in vitro ADME; details: for Ln (% Remaining): mouse plasma, 37°C, Figure 5B
Procedure: Pooled frozen plasma of CD-1 mice (n = 20; catalog MSE00PLK2M2N, Beijing Vital River Laboratory Animal Technology) or humans (n = 6, catalog […]2P2N, Bioreclamation IVT), equal numbers of males and females, was thawed in a 37°C water bath, and residual clots were removed by centrifugation (500g for 5 minutes). Plasma (98 μL) was aliquoted in each well of 96-well reaction plates using an Apricot automation workstation. WCDD301 (100 μM) or propantheline bromide (100 μM, as a positive control) was added (2 μL/well) to sets of wells assigned to blank or time points (T0, T10, T30, T60, and T120 minutes) and incubated at 37°C. At each time point, the reaction was stopped by adding stop solution (500 μL; a mixture of 200 ng/mL of tolbutamide and labetalol in acetonitrile), mixed thoroughly, sealed, shaken (20 minutes), and centrifuged (1,750g, 4°C, 20 minutes). A total of 150 μL of the supernatant from each well of the reaction plate was transferred to its corresponding bioanalysis plate for LC-MS/MS analysis. The remaining level (%) of the WCDD301 was calculated using the following equation: remaining (%) = (PAR at each time point/PAR at T0) × 100. PAR stands for the peak area ratio of the WCDD301 versus internal standard.

[5] = Microsomal stability assay, human liver microsomes; format: in vitro ADME; details: for Remaining in hepatic microsomes (100 at 0 min): human microsomes, Figure 5C
Procedure: A total of 445 μL of the working solution was transferred into prewarmed incubation plates for treated (T60) and control (NCF60) measurements. After preincubation (10 minutes at 37°C with constant shaking), 54 μL was transferred to the blank plate, followed by 6 μL of NADPH and 180 μL quenching solution. In parallel, 5 μL of WCDD301 (100 μM) was added into incubation plates (T60 and NCF60) containing microsomes and mixed thoroughly (3 times). For the NCF60 plate, 50 μL of buffer was added, mixed (thoroughly, 3 times), shaken, and incubated at 37°C for 60 minutes. In the quenching plate T0, quenching solution (180 μL) and NADPH cofactor (6 μL) were added. For T60 plate, 54 μL of the mixture was placed into the quenching plate (for T0 point), followed by adding 44 μL NADPH cofactor with shaking incubation at 37°C for 60 minutes. Quenching solution (180 μL) was added to quenching plates at 5, 15, 30, 45, and 60 minutes, and 60 μL of sample was transferred from T60 plate per time point to the quenching plates. For the NCF60 plates, 60 μL sample from the NCF60 incubation plate was transferred to the quenching plate (containing quenching solution) at the 60-minute time point. After plates were shaken for 10 minutes and centrifuged (1,750g, 20 minutes at 4°C), 80 μL of the supernatant was transferred into 240 μL HPLC water for LC-MS/MS analysis. The following first-order kinetic equation was used to calculate half-life (T1/2): [drawing 3]; when
Then, intrinsic clearance [CLint (microsomal; mic)] and hepatic clearance [CLint (liver)] were predicted using the following equations ([66]): […]

**Q.** Which results are given for `CC(=O)OCC(N)(COC(C)=O)COC(C)=O` [WCDD301, 2-(acetoxymethyl)-2-aminopropane-1,3-diyl diacetate]?
**A.** F-actin intensity ([1]; human cells, individual values, Figure 3E): 9.0 and 7.2 and 6.5 and 10.4 and 8.2 and 4.2 and 10.3 and 9.6 and 6.8; Effect on intracellular F-actin ([1]; α cells, human donors): increased intracellular F-actin density; Effect on intracellular F-actin ([2]; dispersed mouse islet cells): increased intracellular F-actin intensity; F-actin intensity ([2]; mouse cells, individual values, Figure 3F): 7.9 and 8.3 and 9.3 and 13.4 and 7.5 and 18.4 and 8.1 and 17.0; EphA4 intensity ([3]; human cells, individual values, Figure 3G): 58.8 and 45.8 and 8.0 and 57.8 and 32.5 and 5.4 and 45.9 and 14.9 and 11.0; Effect on intracellular EphA4 ([3]; α cells, human donors): increased intracellular EphA4 intensity; half-life at 2 µM ([4]; both sexes, CD-1, mouse, plasma): 1.75 h; Ln (% Remaining) ([4]; 10 min): -0.4; Ln (% Remaining) ([4]; 60 min): -0.55; Ln (% Remaining) ([4]; 120 min): -0.94; Microsomal stability in human versus mouse preparation ([5]; human higher than mouse): > 1.5 fold; Remaining in hepatic microsomes (100 at 0 min) ([5]; 5 min): 86.1; Remaining in hepatic microsomes (100 at 0 min) ([5]; 15 min): 78; Remaining in hepatic microsomes (100 at 0 min) ([5]; 30 min): 77.8; Remaining in hepatic microsomes (100 at 0 min) ([5]; 45 min): 77.5; Remaining in hepatic microsomes (100 at 0 min) ([5]; 60 min): 72.4; half-life at 1 µM ([5]; human, liver microsomes): > 2.42 h; microsomal CLint at 1 µM ([5]; human, liver microsomes, read-out: Intrinsic microsomal clearance): < 9.6 µL/min/mg; Hepatic clearance ([5]; human, predicted from microsomal data): < 8.6 mL/min/kg
